Results published in PubChem BioAssay (NCI).
Where “and” joins values, the source holds several entries; their conditions need not be identical. Equal entries are not always repeated.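 Briefly, cells in 96-well plates were exposed to five compound concentrations for 48 h, and endpoints were estimated by linear interpolation. GI50 marks 50% less growth. TGI: total growth inhibition.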

Tests used:
Assay in all cases: NCI anticancer screen, dose series, 48 h
HS 578T breast = test system: HS 578T breast
MDA-MB-231 breast = test system: MDA-MB-231 breast
RPMI-8226 leukemia = test system: RPMI-8226 leukemia
RXF 393 renal = test system: RXF 393 renal
OVCAR-4 ovarian = test system: OVCAR-4 ovarian
MCF7 breast = test system: MCF7 breast
SN12C renal = test system: SN12C renal
UACC-62 melanoma = test system: UACC-62 melanoma
HCT-116 colon = test system: HCT-116 colon
M14 melanoma = test system: M14 melanoma

SMILES	GI50 (HS 578T breast) [µM]	TGI (HS 578T breast)	GI50 (MDA-MB-231 breast) [nM]	TGI (MDA-MB-231 breast)	GI50 (RPMI-8226 leukemia) [µM]	GI50 (RXF 393 renal) [µM]	TGI (RXF 393 renal)	GI50 (OVCAR-4 ovarian) [µM]	TGI (OVCAR-4 ovarian)	GI50 (MCF7 breast) [µM]	TGI (MCF7 breast)	GI50 (SN12C renal) [µM]	TGI (SN12C renal)	TGI (UACC-62 melanoma)	GI50 (HCT-116 colon) [µM]	TGI (HCT-116 colon)	GI50 (M14 melanoma) [µM]	TGI (M14 melanoma)	TGI (RPMI-8226 leukemia) [µM]	GI50 (UACC-62 melanoma) [nM]
COc1cc(/C=C/c2ccnc3ccccc23)cc(OC)c1OC	1.74	20.9 µM and 7.18 µM	2800	9.42 µM and 46 µM	6.55	1.97	15.3 µM and 8.02 µM	4.41	45.5 µM and > 100 µM	2.35	25.2 µM and > 100 µM	4.4	31 µM and > 100 µM	30.7 µM and > 100 µM	2.88	12.1 µM and 18.5 µM	2.43	91 µM and 13.8 µM	–	–
C/C=C(\C)C(=O)O[C@@H]1C=CC(=O)O[C@H]1CNC(=O)[C@H](C)O	16.7	53.8 µM	21800	45.5 µM	9.12	18.3	42.9 µM	19	42.9 µM	15	46.7 µM	26.9	> 75.6 µM	37.7 µM	9.48	24.2 µM	18.6	49.1 µM	33.3	16900
Oc1cc(O)c2c(c1)OC(c1ccc(O)c(O)c1)C(O)C2c1c(O)cc(O)c2c1OC(c1ccc(O)c(O)c1)C(O)C2 (stereo not drawn)	–	> 100 µM	–	> 100 µM	–	–	> 100 µM	–	> 100 µM	–	> 100 µM	–	> 100 µM	> 100 µM	–	> 100 µM	–	> 100 µM	> 100	–
C=C1C(O)C2CC(C)(C)C(=O)C2=C(CC(C)C)C12CC2 (stereo not drawn)	> 100	> 100 µM	> 100000	> 100 µM	36	> 100	> 100 µM	> 100	> 100 µM	> 100	> 100 µM	> 100	> 100 µM	> 100 µM	> 100	> 100 µM	> 100	> 100 µM	> 100	> 100000
CCC(=C(c1ccc(OCCN2CCCC2)cc1)c1ccc(OCCN2CCCC2)cc1)c1ccc(Cl)cc1	0.659	1.52 µM	589	1.11 µM	0.674	0.545	1.04 µM	0.667	1.43 µM	0.287	0.822 µM	0.572	1.1 µM	1.16 µM	0.545	1.05 µM	0.629	1.18 µM	1.53	610
O=C1c2ccccc2C(=O)c2sc(Nc3ccc([N+](=O)[O-])cc3)nc21	–	22.2 µM	–	6.39 µM	–	–	9.71 µM	–	11 µM	–	31 µM	–	8.15 µM	8.31 µM	–	15.2 µM	–	5.91 µM	9.1	–
COc1ccc(-c2nnc(Nc3nc(O)c(C4=c5cc(Br)ccc5=NC4=O)s3)o2)cc1	6.92	22.5 µM	421	10 µM	17.3	5.48	> 55.6 µM	27.5	> 100 µM	> 43.9	> 100 µM	15.5	52.8 µM	26.7 µM	25.5	97.7 µM	20.1	63.7 µM	> 66.5	1080
